Source: US20250320206A1, “STAT6 DEGRADERS” (Gilead Sciences, Inc., priority 2024, published 2025)

Experiments:
STAT6 = target: T1, STAT6 (Homo sapiens, UniProt P42226); assay: Stat6 Degrader Assay (HiBiT based, HeLa LgBiT clone 4.14); assay type: cell-based; conditions: HeLa LgBiT clone 4.14 HiBiT-STAT6, 4-24 h incubation; values given for compounds with >80% Emax; geometric mean; read-out: STAT6 degradation DC50
T1 construct: These cells express endogenous STAT6; host or cells: HeLa LgBiT clone 4.14
T1 sequence (P42226 1-847): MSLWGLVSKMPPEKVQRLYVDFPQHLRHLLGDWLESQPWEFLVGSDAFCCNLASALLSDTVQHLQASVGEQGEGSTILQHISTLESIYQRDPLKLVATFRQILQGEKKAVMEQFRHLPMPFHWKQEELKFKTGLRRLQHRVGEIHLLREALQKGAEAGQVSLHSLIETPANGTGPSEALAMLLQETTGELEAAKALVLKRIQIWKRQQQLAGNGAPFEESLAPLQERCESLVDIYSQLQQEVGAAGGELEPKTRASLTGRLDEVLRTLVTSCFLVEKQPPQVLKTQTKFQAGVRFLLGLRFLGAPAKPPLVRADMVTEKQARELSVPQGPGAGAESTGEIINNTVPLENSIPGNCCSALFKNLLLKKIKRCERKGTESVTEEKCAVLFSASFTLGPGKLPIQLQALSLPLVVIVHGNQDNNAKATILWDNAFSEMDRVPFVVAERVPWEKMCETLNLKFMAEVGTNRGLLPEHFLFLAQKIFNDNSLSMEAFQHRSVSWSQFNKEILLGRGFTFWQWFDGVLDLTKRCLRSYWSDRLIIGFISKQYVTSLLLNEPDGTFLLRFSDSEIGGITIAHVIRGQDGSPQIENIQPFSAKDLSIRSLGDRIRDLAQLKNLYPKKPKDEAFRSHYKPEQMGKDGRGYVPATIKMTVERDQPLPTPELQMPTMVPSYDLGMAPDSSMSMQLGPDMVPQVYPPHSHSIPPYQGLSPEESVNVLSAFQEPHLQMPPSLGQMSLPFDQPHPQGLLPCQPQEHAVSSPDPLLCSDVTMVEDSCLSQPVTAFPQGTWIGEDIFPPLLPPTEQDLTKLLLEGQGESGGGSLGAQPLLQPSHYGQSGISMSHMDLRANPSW
Outline: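 HeLa LgBiT clone 4.14 cells with CRISPR HiBiT-tagged endogenous STAT6, 5000 cells/well, compound dosed then incubated 4-24 h at 37° C, 5% CO2. Nano-Glo substrate added, 0.5 h, luminescence read as non-degraded STAT6. Terfenadine 50 μM (cell kill) defines 100% degradation.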

[1] = test system: Eotaxin-3 release in human whole blood stimulated with IL-4; assay: Human Whole Blood Eotaxin-3 Assay (IL-4 stimulated eotaxin-3 release); assay type: cell-based; conditions: IL-4 stimulation, 48 h, values given for compounds with >80% Emax, geometric mean
Outline: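 Lithium-heparin human whole blood preincubated 2 h at 37° C with 4-fold serially diluted compounds (0.5% DMSO), then stimulated with recombinant human IL-4 ([…]) for 48 h. Eotaxin-3 (CCL26) in supernatant quantified by MSD immunoassay.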

SMILES	DC50 (STAT6) [nM]	EC50 [1] [nM]
C[C@H]1CN(Cc2ccc3c(c2)C2(CC2)C(=O)N3C2CCC(=O)NC2=O)CCN1CC1CCN(C(=O)c2cc(F)c(C3CCN(Cc4cc5c(-n6cc(F)c(N)c(F)c6=O)ccnc5n4C)CC3)c(F)c2)CC1 (stereo partly drawn) [Example 3u96, 3-(5′-(((S)-4-((1-(4-(1-((4-(4-amino-3,5-difluoro-2-oxopyridin-1 (2H)-yl)-1-methyl-1H-pyrrolo[2,3-b]pyridin-2-yl)methyl)piperidin-4-yl)-3,5-difluorobenzoyl)piperidin-4-yl)methyl)-3-methylpiperazin-1-yl)methyl)-2′-oxospiro[cyclopropane-1,3′-indolin]-1′-yl)piperidine-2,6-dione]	4.1	1
CNc1ccn(-c2ccnc3c2cc([C@H](C)N2CC=C(c4c(C)cc(C(=O)N5CCC(CN6CCN(Cc7ccc8c(c7)C(C)(C)C(=O)N8[C@@H]7CCC(=O)NC7=O)C[C@@H]6C)CC5)cc4F)CC2)n3C)c(=O)c1 (single isomer, unassigned) [Example 3u177]	1.8	3.1
CNc1cc(=O)n(-c2ccnc3c2cc([C@H](C)N2CCC(c4ccc(C(=O)N5CCC(CN6CCN(Cc7ccc8c(c7)C7(CC7)C(=O)N8C7CCC(=O)NC7=O)C[C@@H]6C)CC5)cc4)CC2)n3C)cc1F (stereo partly drawn) [Example 3u36, 3-(5′-(((S)-4-((1-(4-(1-((S)-1-(4-(5-fluoro-4-(methylamino)-2-oxopyridin-1 (2H)-yl)-1-methyl-1H-pyrrolo[2,3-b]pyridin-2-yl)ethyl)piperidin-4-yl)benzoyl)piperidin-4-yl)methyl)-3-methylpiperazin-1-yl)methyl)-2′-oxospiro[cyclopropane-1,3′-indolin]-1′-yl)piperidine-2,6-dione]	1.4	3.3
CNc1ccn(-c2ccnc3c2cc(CN2CC=C(c4c(F)cc(C(=O)N5CCC(CN6CCN(Cc7ccc8c(c7)C(C)(C)C(=O)N8[C@H]7CCC(=O)NC7=O)C[C@@H]6C)CC5)cc4F)CC2)n3C)c(=O)c1 (single isomer, unassigned) [Example 3u46]	5.8	10.1
C[C@H]1CN(Cc2ccc3c(c2)C(C)(C)C(=O)N3C2CCC(=O)NC2=O)CCN1CC1CCN(C(=O)c2ccc(C3CCN([C@@H](C)c4cc5c(-n6ccc7c(c6=O)CCN7)ccnc5n4C)CC3)cc2)CC1 (stereo partly drawn) [Example 3u184, 3-(3,3-dimethyl-5-(((S)-3-methyl-4-((1-(4-(1-((S)-1-(1-methyl-4-(4-oxo-1,2,3,4-tetrahydro-5H-pyrrolo[3,2-c]pyridin-5-yl)-1H-pyrrolo[2,3-b]pyridin-2-yl)ethyl)piperidin-4-yl)benzoyl)-piperidin-4-yl)methyl)piperazin-1-yl)methyl)-2-oxoindolin-1-yl)piperidine-2,6-dione]	2.4	7
CNc1ccn(-c2ccnc3c2cc(CN2CC=C(c4c(C)cc(C(=O)N5CCC(CN6CCN(Cc7ccc8c(c7)C(C)(C)C(=O)N8[C@H]7CCC(=O)NC7=O)C[C@@H]6C)CC5)cc4F)CC2)n3C)c(=O)c1 (single isomer, unassigned) [Example 3u179]	6.1	12.4
CNc1cc(=O)n(-c2ccnc3c2cc([C@H](C)N2CC=C(c4c(C)cc(C(=O)N5CCC(CN6CCN(Cc7cc8c(cc7F)N([C@@H]7CCC(=O)NC7=O)C(=O)C87CC7)CC6)CC5)cc4F)CC2)n3C)cc1F (single isomer, unassigned) [Example 3u153]	4.1	8.7
CNc1cc(=O)n(-c2ccnc3c2cc(CN2CC=C(c4c(F)cc(C(=O)N5CCC(CN6CCN(Cc7ccc8c(c7)n(C)c(=O)n8C7CCC(=O)NC7=O)C[C@@H]6C)CC5)cc4F)CC2)n3C)cc1F (stereo partly drawn) [Example 3u54, 3-(5-(((S)-4-((1-(3,5-difluoro-4-(1-((4-(5-fluoro-4-(methylamino)-2-oxopyridin-1 (2H)-yl)-1-methyl-1H-pyrrolo[2,3-b]pyridin-2-yl)methyl)-1,2,3,6-tetrahydropyridin-4-yl)benzoyl)piperidin-4-yl)methyl)-3-methylpiperazin-1-yl)methyl)-3-methyl-2-oxo-2,3-dihydro-1H-benzo[d]imidazol-1-yl)piperidine-2,6-dione]	12	2.7
CNc1cc(=O)n(-c2ccnc3c2cc([C@H](C)N2CC=C(c4c(F)cc(C(=O)N5CCC(CN6CCN(Cc7ccc8c(c7)n(C)c(=O)n8[C@H]7CCC(=O)NC7=O)CC6)CC5)cc4F)CC2)n3C)cc1F (single isomer, unassigned) [Example 3u52]	4.3	1.1
CNc1cc(=O)n(-c2ccnc3c2cc(CN2CCC(c4c(F)cc(C(=O)N5CCC(CN6CCN(Cc7cc8c(cc7F)N([C@H]7CCC(=O)NC7=O)C(=O)C87CC7)CC6)CC5)cc4F)CC2)n3C)cc1F (single isomer, unassigned) [Example 3u94]	10.2	23.8
CNc1cc(=O)n(-c2ccnc3c2cc([C@H](C)N2CC=C(c4c(C)cc(C(=O)N5CCC(CN6CCN(Cc7ccc8c(c7)C7(CCC7)C(=O)N8C7CCC(=O)NC7=O)C[C@@H]6C)CC5)cc4F)CC2)n3C)cc1F (stereo partly drawn) [Example 3u309, 3-(5′-(((S)-4-((1-(3-fluoro-4-(1-((S)-1-(4-(5-fluoro-4-(methylamino)-2-oxopyridin-1 (2H)-yl)-1-methyl-1H-pyrrolo[2,3-b]pyridin-2-yl)ethyl)-1,2,3,6-tetrahydropyridin-4-yl)-5-methylbenzoyl)piperidin-4-yl)methyl)-3-methylpiperazin-1-yl)methyl)-2′-oxospiro[cyclobutane-1,3′-indolin]-1′-yl)piperidine-2,6-dione]	2.2	4.8

Now those with a lower DC50 (STAT6), led by results:

DC50 (STAT6) [nM]	EC50 [1] [nM]	SMILES
1.1	2.7	CNc1ccn(-c2ccnc3c2cc([C@H](C)N2CCC(c4c(C)cc(C(=O)N5CCC(CN6CCN(Cc7ccc8c(c7)n(C7CC7)c(=O)n8[C@@H]7CCC(=O)NC7=O)C[C@@H]6C)CC5)cc4F)CC2)n3C)c(=O)c1 (single isomer, unassigned) [Example 3u199]
0.7	1.6	CNc1cc(=O)n(-c2ccnc3c2cc(CN2CCC(c4c(F)cc(C(=O)N5CCC(CN6CCN(Cc7ccc8c(c7)n(C)c(=O)n8C7CCC(=O)NC7=O)C[C@@H]6C)CC5)cc4F)CC2)n3C)cc1F (stereo partly drawn) [Example 3u60, 3-(5-(((S)-4-((1-(3,5-difluoro-4-(1-((4-(5-fluoro-4-(methylamino)-2-oxopyridin-1 (2H)-yl)-1-methyl-1H-pyrrolo[2,3-b]pyridin-2-yl)methyl)piperidin-4-yl)benzoyl)piperidin-4-yl)methyl)-3-methylpiperazin-1-yl)methyl)-3-methyl-2-oxo-2,3-dihydro-1H-benzo[d]imidazol-1-yl)piperidine-2,6-dione]
0.3	0.2	CNc1ccn(-c2ccnc3c2cc([C@H](C)N2CC=C(c4c(C)cc(C(=O)N5CCC(CN6CCN(Cc7cc8c(cc7F)n(C7CCC(=O)NC7=O)c(=O)n8C)C[C@@H]6C)CC5)cc4F)CC2)n3C)c(=O)c1 (stereo partly drawn) [Example 3u207, 3-(6-fluoro-5-(((S)-4-((1-(3-fluoro-5-methyl-4-(1-((S)-1-(1-methyl-4-(4-(methyl-amino)-2-oxopyridin-1 (2H)-yl)-1H-pyrrolo[2,3-b]pyridin-2-yl)ethyl)-1,2,3,6-tetrahydropyridin-4-yl)-benzoyl)piperidin-4-yl)methyl)-3-methylpiperazin-1-yl)methyl)-3-methyl-2-oxo-2,3-dihydro-1H-benzo[d]imidazol-1-yl)piperidine-2,6-dione]
0.4	2	CNc1ccn(-c2ccnc3c2cc(CN2CC=C(c4c(C)cc(C(=O)N(C)c5ccc(C6CCN(Cc7ccc8c(c7)C(C)(C)C(=O)N8[C@@H]7CCC(=O)NC7=O)CC6)cc5)cc4F)CC2)n3C)c(=O)c1 (single isomer, unassigned) [Example 3u230]
0.7	1.3	CNc1ccn(-c2ccnc3c2cc([C@H](C)N2CC=C(c4c(C)cc(C(=O)N5CCC(CN6CCN(c7cc8c(cc7F)n([C@@H]7CCC(=O)NC7=O)c(=O)n8C)CC6)CC5)cc4F)CC2)n3C)c(=O)c1 (single isomer, unassigned) [Example 3u308]
1.1	1.1	CNc1ccn(-c2ccnc3c2cc([C@H](C)N2CCC(c4c(F)cc(C(=O)N5CCC(CN6CCN(Cc7ccc8c(c7)C(C)(C)C(=O)N8[C@@H]7CCC(=O)NC7=O)C[C@@H]6C)CC5)cc4F)CC2)n3C)c(=O)c1 (single isomer, unassigned) [Example 3u82]
